Reference: patent US5352685A, “Thieno[3,2-b]pyridine derivatives” (priority 1992, dated 1994)
Where a name gives a salt, the structure may show the parent alone.

Experiments:
mouse gastric emptying = assay: Promoting action of mouse gastric emptying; format: in vivo; conditions: 1 mg/kg, p.o.; 24-hour starved male ddy mice; control group (distilled water) defined as 100%
Procedure: Promoting action of mouse gastric emptying Male, ddy mice (body weight; 20 to 25 g) were used. 24-Hour after starvation 1 mg/kg test compounds dissolved in distilled water were orally administered (10 ml/kg). To the control group distilled water was orally administered (10 ml/kg). One hour later, a 2000 ppm phenol red solution (suspended in aqueous 0.5% carboxymethyl cellulose solution) was administered to each mouse (liquid dose; 0.05 ml/mouse). Then, 15 minutes later, the animals were killed to remove the stomachs. The phenol red retained in the stomachs was developed in 20 ml of a 2.75% trisodium phosphate solution, and analyzed with an absorption photometer at a wave length of 540 nm (A). Immediately after the phenol red solution was administered, the animals were killed to quantitatively determine the phenol red left in the stomachs (B). The difference in the amount of phenol red between A and B (B-A) was designated as gastric emptying. The gastric emptying of the test compounds were shown in Table 4 below, provided that the gastric emptying of the control group was defined as 100%.

[1] = molecular target: T1, 5-HT3 (serotonin 3) receptor (Rattus norvegicus, UniProt P35563); assay: 5-HT3 antagonistic action (antagonistic action of Bezold-Jarish reflex) in anesthetized rat; format: in vivo; conditions: iv, 5 min; i.v.; 5-HT 8 μg/kg i.v.; male Wistar rat under urethane anesthesia; read-out: ID50 (dose with inhibition ratio of 50%, Bezold-Jarish reflex)
T1 construct: from tissue; host or cells: living anaesthetized male Wistar rat (in vivo; endogenous receptor)
T1 sequence (P35563 24-483): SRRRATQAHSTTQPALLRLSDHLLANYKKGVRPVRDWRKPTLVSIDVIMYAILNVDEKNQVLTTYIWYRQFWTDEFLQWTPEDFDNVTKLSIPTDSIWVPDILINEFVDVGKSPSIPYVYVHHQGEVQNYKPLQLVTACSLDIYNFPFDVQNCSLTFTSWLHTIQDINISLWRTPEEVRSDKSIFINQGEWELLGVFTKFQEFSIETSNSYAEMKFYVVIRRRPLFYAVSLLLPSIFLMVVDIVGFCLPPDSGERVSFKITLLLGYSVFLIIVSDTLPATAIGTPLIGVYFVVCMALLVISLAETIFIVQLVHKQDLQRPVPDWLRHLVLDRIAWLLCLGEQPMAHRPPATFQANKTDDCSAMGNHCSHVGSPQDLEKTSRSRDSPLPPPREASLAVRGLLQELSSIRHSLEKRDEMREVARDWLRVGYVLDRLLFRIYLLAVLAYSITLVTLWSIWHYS
Procedure: 3) 5-HT3 antagonistic action (antagonistic action of Bezold-Jarish reflex)
According to the following method, the assessment of a compound in terms of the antagonistic action of Bezold-Jarish reflex triggered by 5-HT was carried out in a rat under anesthesia.
A male Wistar rat, weighed 300 to 400 g, was anesthetized with an intra-parenteral dose of 1.2 g/kg urethane, to monitor the heart rate triggered by electrocardiography. Five minutes after saline was intravenously administered (0.5 ml/kg) to the rat, 5-HT (8 μg/kg) dissolved in saline (0.5 ml/kg) was intravenously administered firstly, to measure the change in […] (A). To the same rat after 10 minutes interval, the test compound was intravenously administered, 5 minutes later 5-HT was administered in the same fashion, to measure the change in heart rate (B). Based on these values, the inhibition ratio of the test compound was calculated by the following formula:
inhibition ratio=(1-B/A)×100
Also, the dose with the inhibition ratio of 50% was defined as the ID50 of the test compound.

[2] = Acute toxicity, oral, mice; format: in vivo, mouse (male ddy); conditions: orally 1000 mg/kg; 3 mice per compound; observation 7 days
Procedure: For the test of acute toxicity, male ddy mice (body weight; 25 to 30 g, 3 mice for one test compound) were used. Test compound of Example 1 or 2 was orally administered at 1000 mg/kg.

dog gastric contraction = assay: Promoting action of dog gastric contraction; format: in vivo, dog (adult mongrel); conditions: Canis lupus familiaris, iv, 0.5 h; i.v.; starved dogs; contraction for 30-minute interval after dose vs. IMC contraction immediately before; read-out: ED50 (dose developing 50% of the IMC contraction)
Procedure: 2) Promoting action of dog gastric contraction An implant-type strain-gauge transducer was sutured onto the serosa at the autrum (about 3 cm above pylorus) of adult mongrel dogs, weighed 11 to 15 kg, so as to determine the contraction of the circular muscle. Two weeks or more after the surgery, the gastric contraction was recorded for analysis with a data processing device. […] The dog was put to starvation for about 16 hours. Ten minutes after the completion of one IMC, a test compound was intravenously administered. The contraction for the 30-minute interval thereafter was represented as a percentage (%) to the IMC contraction having occurred immediately before, and the dose developing the 50% contraction was defined as ED50.

Compound | Promoting Action of Gastric Emptying (%) (mouse gastric emptying) | ED50 [1] | death (acute toxicity) [2] | ED50 (dog gastric contraction)
CN1[C@@H]2CC[C@H]1C[C@@H](NC(=O)c1cn(C)c3ccsc3c1=O)C2 [Example 10, (endo)-N-(8-methyl-8-azabicyclo[3.2.1]oct-3-yl)-4,7-dihydro-4-methyl-7-oxothieno[3.2-b]pyridine-6-carboxamide] | 140% |  |  | 
O=C(NC1CN2CCC1CC2)c1cnc2ccsc2c1O (stereo not shown) [Example 1, N-(1-azabicyclo[2.2.2]oct-3-yl)-7-hydroxythieno[3.2-b]pyridine-6-carboxamide] | 147% | 0.15 µg/kg | no death | 10 µg/kg
COc1cc(N)c(Cl)cc1C(=O)NC1CCN2CCCC1C2 (stereo not drawn) [BRL-24924, (endo)-4-amino-5-chloro-2-methoxy-N-[1-azabicyclo-(3.3.1)-non-4-yl]-benzamide hydrochloride, reference compound] |  |  |  | 100 µg/kg
O=C(N[C@H]1CN2CCC1CC2)c1cnc2ccsc2c1O [Example 2, R-N-(1-azabicyclo[2.2.2]oct-3-yl)-7-hydroxythieno[3.2-b]pyridine-6-carboxamide] | 185% |  | no death | 5 µg/kg
Cc1csc2c(O)c(C(=O)NC3CN4CCC3CC4)cnc12 (stereo not shown) [Example 11] | 152% |  |  | 
